Data on two molecules can be found in US12624022B2, “Heterocyclic immunomodulators as PDL1 checkpoint inhibitor” (Janssen Sciences Ireland Unlimited Company, priority 2019, dated 2026).

For test [1] the following is noted: across the 27 clinical trials analyzed (Tie Y et al., 2016); cited from earlier work.
The next test concerns the target PD-1/PD-L1 (Homo sapiens, UniProt Q9NZQ7). Description: PD-1/PD-L1 biochemical protein-protein interaction assay (ALPHA). As to conditions: Table 1a; 5 nM His tagged PD-L1, 5 nM biotinylated PD-1, 2 hours at 25° C.; read-out: ALPHA-LISA IC50. Format: binding. As for the experimental part: Compounds were tested in protein-protein interaction assay to determine if they can specifically block the interaction between the extracellular domains of PD-1/PD-L1. Binding of the protein pairs is measured using a bead based amplified luminescent proximity homogeneous assay (ALPHA) platform. Binding of each protein pair results in proximity of the donor and acceptor beads which leads to an increase in ALPHA signal. Assays are performed in 50 mM Tris (pH 7.4), 0.0015% Triton X-100, 0.1% BSA. Final protein concentration in the assays were 5 nM (His tagged PD-L1), 5 nM (biotinylated PD-1), 10 μg/ml ALPHA assay acceptor beads, 10 μg/ml ALPHA assay donor beads. After an assay reaction time of 2 hours at 25° C., binding was measured. The specificity of the binding was determined by testing the compounds in an assay with an irrelevant protein that is both His tagged and biotinylated. The final protein concentration used in the assay was 5 nM, 10 μg/ml ALPHA assay acceptor beads, 10 μg/ml ALPHA assay donor beads. After an assay reaction time of 2 hours at 25° C., binding was measured. IC50 values were calculated from the fit of the dose-response curves to a four-parameter equation.
In general terms: In Alpha technology, singlet oxygen from a donor bead excites a nearby acceptor bead.

pIC50: −log10 of the molar value.

Chain of PD-1/PD-L1 (Q9NZQ7 19-238 limits assumed): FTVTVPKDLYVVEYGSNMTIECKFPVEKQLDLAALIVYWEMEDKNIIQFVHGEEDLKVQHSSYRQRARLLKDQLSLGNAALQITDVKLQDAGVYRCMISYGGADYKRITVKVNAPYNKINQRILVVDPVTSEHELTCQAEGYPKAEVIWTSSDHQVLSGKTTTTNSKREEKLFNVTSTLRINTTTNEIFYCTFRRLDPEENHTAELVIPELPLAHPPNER

For the molecule “Opdivo: Opdivo® (Nivolumab), given as example of PD-L1/PD-1 antagonist therapy validated in clinical trials”, the “objective response rate (ORR)” value in test [1] is 26%.
For `N#Cc1cccc(COc2cc(OCc3cccn(-c4ccc5c(c4)OCCO5)c3=O)c(Cl)cc2CN[C@H](CO)C(=O)O)c1` [Compound 202, (5-chloro-2-((3-cyanobenzyl)oxy)-4-((1-(2,3-dihydrobenzo[b][1,4]dioxin-6-yl)-2-oxo-1,2-dihydropyridin-3-yl)methoxy)benzyl)-D-serine], the pIC50 on PD-1/PD-L1 is 6.70.

As a reminder, the pIC50 is the negative decadic logarithm of the IC50, by convention in mol/L.
